Measured values published in patent publication US20230041743A1, “1,8-NAPHTHYRIDIN-2-ONE COMPOUNDS FOR THE TREATMENT OF AUTOIMMUNE DISEASE” (Hoffmann-La Roche Inc., priority 2019, published 2023).

Biological target: T1, hERG channel (Homo sapiens, UniProt Q12809)
T1 construct: expressed in transfected cells; host or cells: CHO (Chinese hamster ovary), CHOhERG
Assay: hERG channel inhibition assay (patch-clamp, CHOhERG cells)
Format: cell-based
Settings: whole-cell patch-clamp; for IC20: human, CHO cells stably expressing hERG (CHOhERG)
Method: hERG Channel Inhibition Assay
The hERG K^+ channels were cloned in humans and stably expressed in a CHO (Chinese hamster ovary) cell line. CHOhERG cells were used for patch-clamp (voltage-clamp, whole-cell) experiments. Cells were stimulated by a voltage pattern to activate hERG channels and conduct IKhERG Currents (rapid delayed outward rectifier potassium current of the hERG channel). After the cells were stabilized for a few minutes, the amplitude and kinetics of IKhERG were recorded at a stimulation frequency of 0.1 Hz (6 bpm). Thereafter, the test compound was added to the preparation at increasing concentrations. For each concentration, an attempt was made to reach a steady-state effect, usually, this was achieved within 3-10 min at which time the next highest concentration was applied. The amplitude and kinetics of IKhERG are recorded in each concentration of the drug which were compared to the control values (taken as 100%). (references: Redfern W S, Carlsson L, Davis A S, Lynch W G, MacKenzie I, Palethorpe S, Siegl P K, Strang I, Sullivan A T, Wallis R, Camm A J, Hammond T G. 2003; Relationships between preclinical cardiac electrophysiology, clinical QT interval prolongation and torsade de pointes for a broad range of drugs: evidence for a provisional safety margin in drug development. Cardiovasc. Res. 58:32-45, Sanguinetti M C, Tristani-Firouzi M. 2006; hERG potassium channels and cardiac arrhythmia. Nature 440:463-469, Webster R, Leishman D, Walker D. 2002; Towards a drug concentration effect relationship for QT prolongation and torsades de pointes. Curr. Opin. Drug Discov. Devel. 5:116-26).

T1 sequence (Q12809 whole entry): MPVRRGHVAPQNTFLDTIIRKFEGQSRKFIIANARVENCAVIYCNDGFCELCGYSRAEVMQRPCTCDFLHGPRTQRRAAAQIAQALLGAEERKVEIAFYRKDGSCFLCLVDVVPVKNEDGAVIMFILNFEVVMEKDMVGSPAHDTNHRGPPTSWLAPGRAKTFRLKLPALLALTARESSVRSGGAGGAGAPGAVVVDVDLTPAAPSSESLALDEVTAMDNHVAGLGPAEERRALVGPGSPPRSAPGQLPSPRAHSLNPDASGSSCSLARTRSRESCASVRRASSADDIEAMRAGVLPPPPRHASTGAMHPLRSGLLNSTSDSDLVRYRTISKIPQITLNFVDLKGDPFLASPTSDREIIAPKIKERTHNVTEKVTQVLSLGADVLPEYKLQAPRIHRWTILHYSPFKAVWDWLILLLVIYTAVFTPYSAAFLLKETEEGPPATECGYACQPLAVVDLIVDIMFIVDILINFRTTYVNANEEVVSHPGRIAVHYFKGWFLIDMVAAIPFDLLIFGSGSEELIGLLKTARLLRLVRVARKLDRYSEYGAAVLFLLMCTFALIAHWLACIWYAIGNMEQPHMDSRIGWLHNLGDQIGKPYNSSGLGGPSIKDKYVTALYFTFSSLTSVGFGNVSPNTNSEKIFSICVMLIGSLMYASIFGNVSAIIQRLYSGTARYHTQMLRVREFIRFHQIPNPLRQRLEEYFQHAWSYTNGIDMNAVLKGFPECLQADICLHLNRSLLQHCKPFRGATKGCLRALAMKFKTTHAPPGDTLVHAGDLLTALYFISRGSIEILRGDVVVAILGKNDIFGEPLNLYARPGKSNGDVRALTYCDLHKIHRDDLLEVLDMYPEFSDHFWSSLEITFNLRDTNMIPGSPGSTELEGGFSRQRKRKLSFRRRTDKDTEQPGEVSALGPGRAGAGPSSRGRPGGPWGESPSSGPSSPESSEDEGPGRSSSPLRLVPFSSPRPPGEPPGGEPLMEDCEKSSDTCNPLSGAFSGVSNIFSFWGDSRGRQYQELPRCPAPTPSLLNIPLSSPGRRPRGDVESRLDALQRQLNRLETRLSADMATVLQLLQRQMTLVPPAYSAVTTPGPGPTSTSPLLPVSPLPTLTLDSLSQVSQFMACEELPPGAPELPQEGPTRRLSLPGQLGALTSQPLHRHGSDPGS

## C[C@@H]1CN(c2ccc3c(c2)CN2[C@H](C)CN(c4cc(=O)n(C)c5ncccc45)C[C@H]32)CCN1 [Example 14, 4-[(4R,10bS)-4-methyl-8-[(3R)-3-methylpiperazin-1-yl]-3,4,6,10b-tetrahydro-1H-pyrazino[2,1-a]isoindol-2-yl]-1-methyl-1,8-naphthyridin-2-one]
  IC20: > 10 µM
  IC50: > 20 µM

## C[C@@H]1CN(c2cc(=O)n(C)c3ncccc23)C[C@@H]2c3ccc(N4CCC(C)(N)CC4)cc3CN12 [Example 18, 4-[(4R,10bS)-8-(4-amino-4-methyl-1-piperidyl)-4-methyl-3,4,6,10b-tetrahydro-1H-pyrazino[2,1-a]isoindol-2-yl]-1-methyl-1,8-naphthyridin-2-one]
  IC20: > 10 µM
  IC50: > 20 µM

## C[C@@H]1CN(c2cc(=O)n(C)c3ncccc23)C[C@@H]2c3ccc(N4C[C@@H]5C[C@H]4CN5)cc3CN12 [Example 19, 4-[(4R,10bS)-8-[(1S,4S)-2,5-diazabicyclo[2.2.1]heptan-2-yl]-4-methyl-3,4,6,10b-tetrahydro-1H-pyrazino[2,1-a]isoindol-2-yl]-1-methyl-1,8-naphthyridin-2-one]
  IC20: > 10 µM
  IC50: > 20 µM

## C[C@@H]1CN(c2cc(=O)n(C)c3ncccc23)C[C@@H]2c3ccc(N4CCN[C@@H](C)C4)cc3CN12 [Example 13, 4-[(4R,10bS)-4-methyl-8-[(3S)-3-methylpiperazin-1-yl]-3,4,6,10b-tetrahydro-1H-pyrazino[2,1-a]isoindol-2-yl]-1-methyl-1,8-naphthyridin-2-one]
  IC20: 7.2 µM
  IC50: > 20 µM

## C[C@@H]1CN(c2cc(=O)n(C)c3ncccc23)C[C@@H]2c3ccc(N4CCOC[C@H](N)C4)cc3CN12 [Example 22, 4-[(4R,10bS)-8-[(6R)-6-amino-1,4-oxazepan-4-yl]-4-methyl-3,4,6,10b-tetrahydro-1H-pyrazino[2,1-a]isoindol-2-yl]-1-methyl-1,8-naphthyridin-2-one]
  IC20: > 10 µM
  IC50: > 20 µM

## C[C@@H]1CN(c2cc(=O)n(C)c3ncccc23)C[C@@H]2c3ccc(N4CC5(CN(C)C5)C4)cc3CN12 [Example 2, 4-[(4R,10bS)-4-methyl-8-(6-methyl-2,6-diazaspiro[3.3]heptan-2-yl)-3,4,6,10b-tetrahydro-1H-pyrazino[2,1-a]isoindol-2-yl]-1-methyl-1,8-naphthyridin-2-one]
  IC20: > 10 µM
  IC50: > 20 µM

## C[C@@H]1CN(c2cc(=O)n(C)c3ncccc23)C[C@@H]2c3ccc(C4CCNCC4)cc3CN12 [Example 24, 4-[(4R,10bS)-4-methyl-8-(4-piperidyl)-3,4,6,10b-tetrahydro-1H-pyrazino[2,1-a]isoindol-2-yl]-1-methyl-1,8-naphthyridin-2-one]
  IC20: > 10 µM
  IC50: > 20 µM

## CO[C@@H]1CN(c2ccc3c(c2)CN2[C@H](C)CN(c4cc(=O)n(C)c5ncccc45)C[C@H]32)C[C@H]1N [Example 5, 4-[(4R,10bS)-8-[(3R,4R)-3-amino-4-methoxy-pyrrolidin-1-yl]-4-methyl-3,4,6,10b-tetrahydro-1H-pyrazino[2,1-a]isoindol-2-yl]-1-methyl-1,8-naphthyridin-2-one]
  IC20: > 10 µM
  IC50: > 20 µM

## C[C@@H]1CN(c2cc(=O)n(C)c3ncccc23)C[C@@H]2c3ccc(N4CCC[C@](C)(N)C4)cc3CN12 [Example 15, 4-[(4R,10bS)-8-[(3S)-3-amino-3-methyl-1-piperidyl]-4-methyl-3,4,6,10b-tetrahydro-1H-pyrazino[2,1-a]isoindol-2-yl]-1-methyl-1,8-naphthyridin-2-one]
  IC20: > 10 µM
  IC50: > 20 µM
